Measurements published in patent publication US8969405B2, “Anticancer compounds and methods of making and using same” (St. Jude Children's Research Hospital, priority 2008, dated 2015).

Tests used:
cell cycle = conditions: reported in the literature; cited from earlier work
[1] = Stability study in buffer solution by HPLC; type: physicochemical; conditions: 100 μM in PBS buffer and DMSO (2:1)
Protocol: Stability studies were performed for exemplary compounds 48 and 15. A 100 μM solution of compound 48 was prepared in buffer (PBS, pH 7.4) and warfarin was used as an internal standard. A sample was injected into a HPLC periodically starting at day 0 and ending at about 6 weeks to find out the stability of compound 48 in PBS solution. […] After 6 weeks, 58% of compound 48 remained in the buffer solution.

NOD/SCID mice = assay: Mouse maximum tolerated dose (MTD) study; type: in vivo; conditions: for fatality: daily for five days, three mice per group
Protocol: The mice were monitored for one week following compound administration. […] There was one fatality in the IP 25 mg/kg and one in the IV 50 mg/kg groups.

[2] = system: JeKo-1 mantle cell lymphoma tumors; assay: In vivo efficacy study, JeKo-1 tumor-bearing mice
Protocol: Arrows indicate the dosing schedule. The data are represented as mean±SEM.
Studies were carried out to determine whether the above doses were capable of inhibiting tumor growth in mice (FIG. 4). […] A widely used criterion for determining antitumor activity is tumor growth inhibition (T/C). This value is calculated by dividing the median tumor volumes of treated mice by the median volumes in control mice.

[3] = system: PC-3 prostate cancer cell line; assay: In vitro cytotoxicity analysis (XTT), 72-hour exposure; type: cell-based; conditions: Homo sapiens, PC3 cells
Protocol: (§1) Briefly, cell lines were seeded at various cell densities depending on the cell type.
(§2) Tables 1-3 display cytotoxicity data for exemplary compounds following a 72-hour exposure.

[4] = system: JeKo-1 mantle cell lymphoma cell line; assay: as above; type: cell-based; conditions: Homo sapiens, JEKo1 cells
Protocol: as §1, §2

[5] = system: experimental tumors in mice; conditions: reported, Nakajima et al. 1996; cited from earlier work

Structure (SMILES)	effect on the cell cycle (cell cycle)	compound remaining in the buffer ([1]; after 6 weeks) [%]	half-life at 100 μM ([1]; read-out: calculated half life (converted)) [days]	fatality (NOD/SCID mice; IP 25 mg/kg group)	fatality (NOD/SCID mice; IV 50 mg/kg group)	blood cell counts in treated versus vehicle-only mice (NOD/SCID mice; NOD/SCID mice, 5-50 mg/kg daily for five days, IV and IP)	weight loss (NOD/SCID mice; NOD/SCID mice, 5-50 mg/kg daily for five days, IV and IP, monitored one week after dosing)	total necropsies, organ histologies (NOD/SCID mice; NOD/SCID mice, treatment and vehicle-only groups)	fatalities or weight loss in efficacy study ([2]; 5, 10, 25, or 50 mg/kg IV daily for five consecutive days)	tumor volumes compared to vehicle-treated mice ([2]; 10, 25, or 50 mg/kg IV daily for five consecutive days from day 4)	IC50 [3] [nM]	IC50 [4] [nM]	activity in in vivo cancer animal models [5]
CC[C@H](O)[C@@H](C)[C@H]1O[C@@H]1C[C@H](C)/C=C/C=C(\C)[C@H]1OC(=O)C[C@H](O)CC[C@@](C)(O)[C@@H](OC(C)=O)/C=C/[C@@H]1C [pladienolide]	cell cycle arrest at the G1 and G2/M phases												
CC(/C=C/[C@@H]1C[C@]2(CO2)CC(C)(C)O1)=C\C[C@H]1CC[C@@H](NC(=O)/C=C\[C@H](C)OC(=O)C(C)C)CC1 [Compound 15, (S,Z)-5-((1R,4R)-4-((2E,4E)-5-((3R,5S)-7,7-dimethyl-1,6-dioxaspiro[2.5]octan-5-yl)-3-methylpenta-2,4-dienyl)cyclohexylamino)-5-oxopent-3-en-2-yl isobutyrate]		53	50.6	one	one	No significant differences	No significant weight loss	no significant toxicities	No fatalities or significant weight loss	statistically significant decreases	1900	40	
CC(=O)O[C@@H](C)/C=C\C(=O)N[C@@H]1C[C@H](C)[C@H](C/C=C(C)/C=C/[C@H]2O[C@](C)(O)C[C@@]3(CO3)[C@@H]2O)O[C@@H]1C [FR901464]	cell cycle arrest at the G1 and G2/M phases												showed activity
